{"source": "PubChem BioAssay AID687023", "about": "(Broad Institute, 2013)", "note": "Values joined by “and” are separate entries in the source; they are usually repeats but may differ in a detail not shown here. Equal values may be shown once. Active and inactive are the calls of the source. The rule behind the calls is not given here.", "data": [{"test_system": "Env-mediated cell-cell fusion, plate reader", "assay": "inhibition of Env-driven cell fusion – HIV entry, plate reader, dry powder, dose response (AID 687023)", "details": "not given", "values": [{"smiles": "CCCn1nc(C(=O)Nc2ccc3nc(N4CCOCC4)sc3c2)ccc1=O", "AC50": "4.24 µM and 9.79 µM"}, {"smiles": "CC1(C)CC(NC(=O)C(=O)Nc2ccc(Cl)cc2)CC(C)(C)N1", "AC50": "> 70 µM (inactive) and 27.4 µM"}, {"smiles": "COc1ccc(CC(=O)Nc2cccc(S(=O)(=O)N3CCCCCC3)c2)cc1OC", "AC50": "3.95 µM and 1.88 µM"}, {"smiles": "O=C(CCc1ccc(S(=O)(=O)N2CCOCC2)cc1)Nc1nc(COc2ccccc2)cs1", "AC50": "3.51 µM and 8.07 µM"}, {"smiles": "CC(C)(C)c1ccc(-c2noc(CCC(=O)NCC3CCCO3)n2)cc1", "note": "(stereo unspecified)", "AC50": "0.0954 µM and 0.484 µM"}, {"smiles": "COc1ccc(-c2nn(C)c(=O)c3ccccc23)cc1NC(=O)Cn1nc(C)c2ccccc2c1=O", "AC50": "4.03 µM and 23.5 µM"}, {"smiles": "CCCOc1ccc(S(=O)(=O)NCc2ccncc2)c2ccccc12", "AC50": "0.945 µM and 2.88 µM"}, {"smiles": "Nc1nonc1C(=O)NCCNCc1c(OCc2ccccc2F)ccc2ccccc12", "AC50": "9.38 µM and 3.61 µM"}, {"smiles": "CCOc1ccc(S(=O)(=O)NC(C)c2ccncc2)cc1", "note": "(stereo unspecified)", "AC50": "1.16 µM and 2.43 µM"}]}, {"test_system": "not listed separately", "assay": "inhibition of Env-driven cell fusion – HIV entry, plate reader, dry powder, dose response (AID 687023)", "details": "Env-mediated cell-cell fusion, plate reader; at 1.2 µM (top of the series)", "values": [{"smiles": "Cc1noc(C)c1S(=O)(=O)Nc1cccc2c1O[C@H](CN(C)Cc1ccc(C(F)(F)F)cc1)[C@@H](C)CN([C@H](C)CO)C2=O", "activity change, negative = inhibition": "53.5% (inactive)"}, {"smiles": "Oc1ccc(CNc2ccccc2F)c2cccnc12", "activity change, negative = inhibition": "33.1% (inactive)"}, {"smiles": "Cc1ccc(-c2nnc3ccc4c(C(F)(F)F)cc(C(F)(F)F)nc4n23)cc1", "activity change, negative = inhibition": "38.4% (inactive)"}]}, {"test_system": "not listed separately", "assay": "inhibition of Env-driven cell fusion – HIV entry, plate reader, dry powder, dose response (AID 687023)", "details": "Env-mediated cell-cell fusion, plate reader; at 3.8 µM (top of the series)", "values": [{"smiles": "CCOc1ccc(OCC)c(S(=O)(=O)NCc2ccncc2)c1", "activity change, negative = inhibition": "30.3% (inactive)"}, {"smiles": "COC(=O)COc1ccc(S(=O)(=O)NCc2ccncc2)cc1", "activity change, negative = inhibition": "62.5% (inactive)"}]}, {"test_system": "not listed separately", "assay": "inhibition of Env-driven cell fusion – HIV entry, plate reader, dry powder, dose response (AID 687023)", "details": "Env-mediated cell-cell fusion, plate reader; at 35 µM (top of the series)", "values": [{"smiles": "Cc1ccc(C)n1-c1ccc(C(=O)O)c(O)c1", "activity change, negative = inhibition": "0.014% (inactive)"}, {"smiles": "Cc1ccc(S(=O)(=O)Nc2cccc3c2O[C@@H](CN(C)Cc2ccc(Cl)c(Cl)c2)[C@@H](C)CN([C@H](C)CO)C3=O)cc1", "activity change, negative = inhibition": "-87.2% (inactive)"}, {"smiles": "Cc1noc(C)c1S(=O)(=O)Nc1cccc2c1O[C@@H](CN(C)Cc1ccc(C(F)(F)F)cc1)[C@H](C)CN([C@H](C)CO)C2=O", "activity change, negative = inhibition": "15.3% (inactive)"}, {"smiles": "COc1ccccc1CCNCc1ccc(OC)c(OCc2ccccc2)c1", "activity change, negative = inhibition": "-63.1% (inactive)"}, {"smiles": "N=C1Sc2ccccc2C2=NCCCN12", "activity change, negative = inhibition": "2.5% (inactive)"}, {"smiles": "Cc1noc(C)c1S(=O)(=O)Nc1cccc2c1O[C@@H](CN(C)Cc1ccc(C(F)(F)F)cc1)[C@H](C)CN([C@@H](C)CO)C2=O", "activity change, negative = inhibition": "56% (inactive)"}, {"smiles": "CCOc1ccc(S(=O)(=O)NCc2ccccn2)cc1", "activity change, negative = inhibition": "34.6% (inactive)"}]}]}
